This note sets out measurements from patent EP1222194B1, “7-ACYLAMINO-3-HETEROARYLTHIO-3-CEPHEM CARBOXYLIC ACID ANTIBIOTICS AND PRODRUGS THEREOF” (priority 1999, dated 2001).

Structures are written as SMILES.

Data set [1] is described as follows: In vitro stability of compounds in rat serum. It counts as in vitro ADME. Conditions: for degraded at 1 h: % loss after 60 min exposure to rat serum as determined by HPLC, 37 °C; for stability in rat serum (statement in words): compared with other 7-acylamino-3-heteroarylthio-3-cephem carboxylic acids. On the procedure:
In general, compounds from the class of 7-acylamino-3-heteroarylthio-3-cephem carboxylic acids have higher chemical reactivity and lower stability towards chemical or enzymatic decomposition than most typical cephalosporins. […] Results shown in Table 2 represent percentage loss of the initial amount of cephalosporin compound upon 60 min incubation in rat serum.
Procedure for measuring degree of degradation of cephalosporin compounds in rat serum was as follows:
Fresh control rat serum (heparinized and stored frozen) is preincubated at 37 °C for 15 min in a shaking water bath. pH is measured using test strips. 25 µL of a 2 mg/mL solution cephalosporin compound (in water) of is then added to each matrix to make 1000 µL. Solutions were incubated at 37 °C. 100ul of solution was taken out at time = 0, 15, 30, and 60 min post dose and added 200 µL 4% trichloroacetic acid, vortexed, and centrifuged for 10 min at 14,000 rpm in an Eppendorfmicrocentrifuge. 25 µL of each supernatant was injected onto HPLC. Experiment was repeated using 25 µL of a 0.2 mg/mL cephalosporin compound. Degradation is measured as the percentage of HPLC peak area at time t relative to peak area at time 0.
HPLC conditions: Beckman Ultrasphere C18 column. 5u. 4.6mm x 25cm. 1 mL/min of 95% 0.1 M ammonium acetate, pH 6, 5% ACN going to 75% buffer/organic over 20min. UV monitored at 254 and 280 nm.

Data set [2] can be described thus: Serum binding determination by ultrafiltration and HPLC. Type of data set: in vitro ADME. The following applies: % of compound bound to serum as determined by HPLC. Here is the method:
The more accurate measurement of binding of selected cephalosporin compounds was performed using HPLC as described below. […] Serum is placed in a shaking water bath preheated to 37 ± 2 °C for 5 to 10 minutes to heat serum to 37 °C. Serum pH is measured and recorded, while serum is 37 °C using pH paper. Measurements are taken twice, 3 minutes apart. If the pH is not 7.4 ± 0.4 then the pH is adjusted by blowing 5% CO2/95% O2 over the serum. After blowing for several minutes, serum is heated to 37 °C and measurements are taken twice, 3 minutes apart using pH paper to determine the pH. Store at 4 °C. The serum is stable for 7 days. Always check the pH before each use. • 2. Before any centrifugation, the centrifuge temperature must be adjusted to 25 ± 2 °C. Preheat the centrifuge by spinning for 45 minutes at the same speed to be used in the assay (1900 g) with two tubes of water in the rotor and the temperature set to 25 °C. When the centrifuge stops immediately check the temperature of the tubes of water with a calibrated thermometer. The temperature of the tubes of water must be 25 ± 2 °C. […] Continue spinning and measuring the temperature and adjusting the setting until the temperature is 25 ± 2 °C. • 3. Prepare blank ultrafiltrate by pipetting blank pH 7.4 serum into an Amicon Centrifree Micropartition devices, centrifuge: fixed angle rotor, 1900 g, 25 °C for 20 minutes. Heat ultrafiltrate in a shaking water bath preheated to 37 °C. Measure ultrafiltrate pH and adjust to the pH of the serum (7.4 ± 0.2). • 4. Pipette 190 ul of blank ultrafiltrate into a set of labeled 1.7 mL polypropylene microfuge tubes for 3 of each level. Pipette 10 µL of the appropriate standard stock 50, 200, 1000 µg/mL to make standards 2.5, 10, and 50 µg/mL respectively. Vortex each tube well. One set of the standard samples are mixed 1:1 with 0.2 M acetic acid and injected onto the HPLC (MSTD). These samples are the membrane standards and will be used to compare to the other standards. Pipette 190 ul of ultrafiltrate and spike with 10 ul of whatever solution (e.g. water) the standards are prepared in to make the zero standard. • 5. Pipette 475 µL of blank heated pH 7.4 serum into a set of labeled 1.7 mL polypropylene microfuge tubes for 2 of each (Serum A and Serum B). Pipette 25 µL of the 1000 µg/mL standard stock into each tube, vortex each tube well to make serum standard 50 µg/mL. Remove 100 µL of serum and deproteinate with 200 µL 4% TCA while vortexing to make serum time 0 (serum 50, T0). Place serum tubes in a shaking water bath at 37 °C for 10 minutes. Pipet 100 µL of serum out and deproteinate with 200 µL 4% TCA, to make serum time 10 min (serum 50, T10). Pipet 200 ul serum standard 50 µg/mL into an ultrafiltration device, which is not treated with TCA, to determine free drug in samples (Rat Serum 50). • 6. Transfer serum and standard samples to labeled Amicon Centrifree Micropartition filters, and centrifuge: 1900 g, 25 °C for 10 minutes. The extracted serum samples (T0 and T 10) are spun down and supernatant is loaded into HPLC vials. • 7. 100 µL of ultrafiltrate sample and 100 µL of 0.2 M acetic acid were mixed together to stabilize the compound in ultrafiltrate. • 8. Transfer entire stabilized ultrafiltrate solution to a labeled autoinjector HPLC vial cap with Teflon septa, and inject on HPLC.
Peak height or area is used in a weighted linear regression.

On to `NCCSCc1ncccc1SC1=C(C(=O)O)N2C(=O)[C@@H](NC(=O)/C(=N\O)c3nsc(N)n3)[C@H]2SC1` [Cmpd 2, (7R)-7-[(Z)-2-(5-amino-1,2,4-thiadiazol-3-yl)-2-(hydroxyimino)acetamido]-3-[2-(2-aminoethylthiomethyl)pyrid-3-ylthio]-3-cephem-4-carboxylic acid], for which, in data set [1], the degraded at 1 h stood at 2% and the “stability in rat serum (statement in words)” value (“stability in rat serum” for short) is “improved stability”. For the same compound, the fraction unbound in data set [2] (rat serum) is 0.26. Further, the free fraction (fraction unbound) in data set [2] (rhesus monkey) is 0.19.
For the compound `NCCSCc1ncccc1SC1=C(C(=O)O)N2C(=O)[C@@H](NC(=O)/C(=N\O)c3nc(N)sc3Cl)[C@H]2SC1` [Cmpd 1, (7R)-7-[(Z)-2-(2-amino-5-chlorothiazol-4-yl)-2-(hydroxyimino)acetamido]-3-[2-(2-aminoethylthiomethyl)pyrid-3-ylthio]-3-cephem-4-carboxylic acid], in data set [1], the degraded at 1 h came out at 9% and the “stability in rat serum” value was “improved stability”. In data set [2] (rat serum), this compound had a fraction unbound of 0.15.
Take `N=C(N)NCCSCc1ncccc1SC1=C(C(=O)O)N2C(=O)[C@@H](NC(=O)/C(=N\O)c3nc(N)sc3Cl)[C@H]2SC1` [Cmpd 2-S, (7R)-7-[(Z)-2-(2-amino-5-chlorothiazol-4-yl)-2-(hydroxyimino)acetamido]-3-[2-(2-guanidinoethylthiomethyl)pyrid-3-ylthio]-3-cephem-4-carboxylic acid]: in data set [1], the degraded at 1 h stood at 38% and the “stability in rat serum” value is “improved stability”. This compound showed a fraction unbound in data set [2] (rat serum) of 0.24. For the same compound, in data set [2] (rhesus monkey), the unbound share (fraction unbound) is 0.12.
With `NCCSCc1ccncc1SC1=C(C(=O)O)N2C(=O)[C@@H](NC(=O)/C(=N\O)c3nc(N)sc3Cl)[C@H]2SC1` [Cmpd 3, (7R)-7-[(Z)-2-(2-amino-5-chlorothiazol-4-yl)-2-(hydroxyimino)acetamido]-3-[4-(2-aminoethylthiomethyl)pyrid-3-ylthio]-3-cephem-4-carboxylic acid], in data set [1], the degraded at 1 h came out at 3% and the “stability in rat serum” value was “improved stability”. For the same compound, the fraction unbound in data set [2] (rat serum) was 0.03. In data set [2] (rhesus monkey), this compound gave a free fraction (fraction unbound) of 0.03.
`N=C(N)NCCSCc1ncccc1SC1=C(C(=O)O)N2C(=O)[C@@H](NC(=O)/C(=N\O)c3nsc(N)n3)[C@H]2SC1` [Cmpd 2-R, (7R)-7-[(Z)-2-(5-amino-1,2,4-thiadiazol-3-yl)-2-(hydroxyimino)acetamido]-3-[2-(2-guanidinoethylthiomethyl)pyrid-3-ylthio]-3-cephem-4-carboxylic acid]: in data set [1], the degraded at 1 h was 10% and the “stability in rat serum” value is reported as “improved stability”.
